# Publication PMC5963640 (Journal of Ocular Pharmacology and Therapeutics, 2018)
# Tests used:
# [1] = Ocular metabolism: levels in aqueous humor after topical ocular dosing; assay type: in vivo, New Zealand rabbits
# Method: In groups 1 and 2, the test article was dosed only once, and 100 μL samples of AH were taken from each eye by paracentesis at 4 or 6 h postdose, respectively. In groups 3 and 4, the test article was dosed once daily for 3 or 4 days, respectively, and 100 μL samples of AH were taken 4 h after dosing.
# [2] = system: normotensive Dutch Belted rabbits; experiment: Ocular hypotensive activity (IOP) in rabbits; conditions: for maximal IOP reduction: once daily, Day 3, at 4 or 8 h after dosing
# [3] = In vitro corneal metabolism, rabbit; assay type: in vitro ADME, Dutch Belted rabbits; conditions: Dutch Belted, corneal tissue punches, 37°C, pH 6.5, read-out: t1/2 of corneal metabolism
# Method: (§1) Enucleated pig eyes (n = 3) were harvested at a local abattoir, stored on ice, and used within 4 h of slaughter. For eyes harvested from beagle dogs (n = 3; Calvert Laboratories, Pittston, PA), Dutch Belted rabbits (n = 3; Robinson Services, Mockesville, NC), and cynomolgus monkeys (n = 4; Covance, Madison, WI), intact globes were stored in K-Sol corneal preservation buffer[31] under cold conditions and used within 24 h of sacrifice. Human corneas (n = 3) were acquired from The Eye Bank for Sight Restoration (New York, NY). The weights of the corneal punches were approximately the same for the dog, pig, human, and rabbit, whereas monkey corneal punches were approximately half of the weight of the others. Corneal punches were stored in phosphate-buffered saline and used within 1 h of preparation.
# (§2) Samples were incubated at 37°C and reactions were subsequently terminated at appropriate time intervals by transferring a 100 μL aliquot of solution to an equal volume of cold acetonitrile followed by thorough trituration. The samples were centrifuged at 10,000 g for 10 min and the supernatants analyzed by high performance liquid chromatography (HPLC) using a Waters Alliance 2695 HPLC (Milford, MA) equipped with a Symmetry C18 4.6 × 75 mm 3.5 μm column.
# live monkeys = system: live monkeys; design: method as in PMID 25535688; conditions: 6 h after topical dosing, 0.04%; cited from earlier work
# [4] = system: normotensive Formosan Rock monkeys; experiment: Ocular hypotensive activity (IOP) in monkeys; conditions: for maximal IOP reduction: once daily, Day 3, at 4 or 8 h after dosing; for IOP reduction: Day 3
# [5] = In vitro corneal metabolism, human; assay type: in vitro ADME; conditions: corneal tissue punches, 37°C, pH 6.5, read-out: t1/2 of corneal metabolism
# Method: as §1, §2
# primary HTM cells = experiment: TGF-β2-induced expression of fibrogenic markers, immunofluorescence; assay type: cell-based, human; conditions: 500 nM netarsudil plus 8 ng/mL TGF-β2, 24 h
# Method: Cells were grown on gelatin (2%)-coated coverslips until they were semi-confluent. […] The cells were then assessed for induction of the fibrogenic markers α-smooth muscle actin (α-SMA), Collagen I, and fibroblast-specific protein 1 (FSP1) using immunofluorescence staining as previously described.[29] Mouse monoclonal antibody against α-SMA was purchased from Sigma-Aldrich, rabbit anti-FSP1 antibody from EMD Millipore (Billerica, MA), and rabbit anti-Collagen I antibody from Abcam (Cambridge, MA).
# [6] = biological target: T1, calcium/calmodulin-dependent protein kinase II Alpha (CAMK2A) (Homo sapiens, UniProt Q9UQM7); experiment: Kinase-Glo luminescent protein kinase assay, CAMK2A; assay type: biochemical; conditions: average of ≥3 replicate experiments; read-out: CAM2A Ki
# T1 construct: purchased Invitrogen/Life Technologies
# T1 sequence (Q9UQM7 whole entry): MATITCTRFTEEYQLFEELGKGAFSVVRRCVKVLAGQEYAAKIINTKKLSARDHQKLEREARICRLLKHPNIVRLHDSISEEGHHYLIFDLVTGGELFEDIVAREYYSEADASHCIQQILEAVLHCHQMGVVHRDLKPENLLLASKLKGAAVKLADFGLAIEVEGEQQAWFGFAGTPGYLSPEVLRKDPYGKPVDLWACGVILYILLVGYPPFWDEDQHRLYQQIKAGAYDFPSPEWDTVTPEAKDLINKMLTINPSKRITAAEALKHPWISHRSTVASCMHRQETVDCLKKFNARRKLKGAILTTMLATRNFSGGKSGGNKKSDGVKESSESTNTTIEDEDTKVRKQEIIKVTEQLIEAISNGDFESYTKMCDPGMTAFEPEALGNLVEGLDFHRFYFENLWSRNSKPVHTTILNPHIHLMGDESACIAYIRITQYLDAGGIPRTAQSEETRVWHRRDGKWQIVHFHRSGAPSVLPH
# [7] = biological target: norepinephrine transporter (NET) (Homo sapiens, UniProt P23975); experiment: NET inhibitory activity (data not shown)
# Chain of norepinephrine transporter (NET) (P23975 whole entry, species assumed): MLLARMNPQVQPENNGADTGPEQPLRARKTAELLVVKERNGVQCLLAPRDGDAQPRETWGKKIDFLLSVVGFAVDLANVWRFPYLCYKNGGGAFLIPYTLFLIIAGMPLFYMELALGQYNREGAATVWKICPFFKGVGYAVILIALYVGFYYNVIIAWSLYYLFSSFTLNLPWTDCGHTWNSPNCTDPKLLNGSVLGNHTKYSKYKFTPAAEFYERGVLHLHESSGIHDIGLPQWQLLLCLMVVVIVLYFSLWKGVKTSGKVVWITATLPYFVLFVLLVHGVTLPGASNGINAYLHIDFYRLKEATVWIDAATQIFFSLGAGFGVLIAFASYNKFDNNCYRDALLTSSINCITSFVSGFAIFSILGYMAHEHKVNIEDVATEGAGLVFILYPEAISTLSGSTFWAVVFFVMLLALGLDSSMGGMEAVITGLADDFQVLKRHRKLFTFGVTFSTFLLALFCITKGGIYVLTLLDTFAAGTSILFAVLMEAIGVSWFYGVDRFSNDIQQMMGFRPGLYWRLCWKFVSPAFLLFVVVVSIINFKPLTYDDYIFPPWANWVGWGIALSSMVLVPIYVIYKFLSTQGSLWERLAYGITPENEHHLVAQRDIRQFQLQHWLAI
# [8] = Absorption and distribution of radioactivity after single topical ocular dose; assay type: in vivo, Dutch Belted rabbits; conditions: male, Dutch Belted, rabbit, in vivo
# Method: A single topical ocular dose of 0.02% ^14C-netarsudil mesylate (35 μL drop) was administered to both eyes of 3 male Dutch Belted rabbits in each of 7 groups. At 0.25, 0.5, 1, 4, 8, 24, and 48 h postdose, the following samples were harvested from each group: whole blood, derived plasma, AH, vitreous humor, cornea, conjunctiva, lens, iris/ciliary body, retina-choroid-plexus, liver, and kidneys. All samples were assayed for total radioactivity. A study of the same design was conducted for AR-12286, using a single topical ocular dose of 0.5% ^3H-AR-12286 (35 μL drop).
# [9] = In vitro corneal metabolism, pig; assay type: in vitro ADME; conditions: corneal tissue punches, 37°C, pH 6.5, read-out: t1/2 of corneal metabolism
# Method: as §1, §2
# [10] = In vitro corneal metabolism, monkey; assay type: in vitro ADME, cynomolgus monkeys; conditions: corneal tissue punches, 37°C, pH 6.5, read-out: t1/2 of corneal metabolism
# Method: as §1, §2
# [11] = biological target: T2, protein kinase C-theta (PKC-theta) (Homo sapiens, UniProt Q04759); experiment: Kinase-Glo luminescent protein kinase assay, PKC-theta; assay type: biochemical; conditions: average of ≥3 replicate experiments; read-out: PKCT Ki
# T2 construct: purchased Invitrogen/Life Technologies
# T2 sequence (Q04759 whole entry): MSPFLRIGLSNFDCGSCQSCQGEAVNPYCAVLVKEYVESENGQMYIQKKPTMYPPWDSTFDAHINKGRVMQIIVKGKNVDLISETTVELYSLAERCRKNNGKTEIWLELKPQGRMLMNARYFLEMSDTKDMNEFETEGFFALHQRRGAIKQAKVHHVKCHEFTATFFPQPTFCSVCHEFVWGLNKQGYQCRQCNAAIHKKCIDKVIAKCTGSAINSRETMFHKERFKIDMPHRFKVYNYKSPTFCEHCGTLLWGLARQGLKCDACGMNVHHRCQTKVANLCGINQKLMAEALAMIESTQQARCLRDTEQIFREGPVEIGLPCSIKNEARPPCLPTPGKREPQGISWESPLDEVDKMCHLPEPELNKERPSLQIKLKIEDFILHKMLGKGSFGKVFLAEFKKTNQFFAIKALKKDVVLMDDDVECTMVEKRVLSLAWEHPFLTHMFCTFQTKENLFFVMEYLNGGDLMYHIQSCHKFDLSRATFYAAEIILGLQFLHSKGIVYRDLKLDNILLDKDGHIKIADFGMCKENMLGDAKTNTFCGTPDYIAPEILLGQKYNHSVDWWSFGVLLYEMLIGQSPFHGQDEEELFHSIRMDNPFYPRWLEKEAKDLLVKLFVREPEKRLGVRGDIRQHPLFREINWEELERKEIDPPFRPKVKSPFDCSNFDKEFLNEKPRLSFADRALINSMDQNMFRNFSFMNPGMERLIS
# Dutch Belted rabbits = experiment: Ocular tolerability (modified Draize, hyperemia score) in rabbits; conditions: 0.005%, 0.01%, 0.02% and 0.04% solutions
# [12] = system: transformed human TM (HTM) cells (TM-1); experiment: Disruption of focal adhesions, high-content screening; assay type: cell-based; conditions: 6 h, read-out: HTM IC50 (disruption of focal adhesions)
# [13] = system: primary porcine TM (PTM) cells; experiment: Disruption of actin stress fibers, high-content screening; assay type: cell-based; conditions: Sus scrofa, 6 h, read-out: PTM IC50 (disruption of actin stress fibers)
# patients = system: patients; design: method as in PMID 25270273; conditions: 0.02% once daily in the evening, Day 7 and 28 morning visits; cited from earlier work
# Formosan Rock monkeys = experiment: Ocular tolerability (modified Draize, hyperemia score) in monkeys; conditions: 0.01%, 0.02% and 0.04% solutions, once daily for 3 days
# [14] = In vitro corneal metabolism, dog; assay type: in vitro ADME, beagle dogs; conditions: beagle, corneal tissue punches, 37°C, pH 6.5, read-out: t1/2 of corneal metabolism
# Method: as §1, §2
compound,measurement,setting,value
Cc1ccc(C(=O)OCc2ccc([C@@H](CN)C(=O)Nc3ccc4cnccc4c3)cc2)c(C)c1 [Netarsudil],concentration in AH,"[1]; after topical netarsudil 0.02%, below the limit of detection in all but 1 of the 24 samples",< 0.1 ng/mL
same,concentration at 4 h,"[1]; male, New Zealand, rabbit, aqueous humor, topical, 0.02 %, read-out: concentration in AH, single sample above limit of detection",1.82 ng/mL
same,maximal IOP reduction,[2]; 0.005% solution,2.5 ± 0.2 mmHg
same,maximal IOP reduction,[2]; 0.01% solution,4.6 ± 0.2 mmHg
same,maximal IOP reduction,[2]; 0.02% solution,5.0 ± 0.6 mmHg
same,maximal IOP reduction,[2]; 0.04% solution,8.1 ± 0.7 mmHg
same,IOP reduction,"[2]; 0.04%, 8 h after dosing on Day 3",8.1 ± 0.7 mmHg
same,time of peak IOP-lowering efficacy after dosing,[2]; Day 1,8 h
same,time IOP reductions were sustained after once daily dosing,[2]; rabbits,at least 24 h
same,half-life at 200 µM,[3],2.33 h
same,increase in tonographic outflow facility,live monkeys,53%
same,maximal IOP reduction,[4]; 0.01% solution,4.2 ± 0.2 mmHg
same,maximal IOP reduction,[4]; 0.02% solution,5.8 ± 0.3 mmHg
same,time for which full IOP-lowering effect was maintained after dosing,[4]; 0.04%,24 h
same,maximal IOP reduction,[4]; 0.04% solution,7.5 ± 1.1 mmHg
same,IOP reduction,"[4]; 0.04%, 4 h after dosing",7.5 ± 0.7 mmHg
same,IOP reduction,"[4]; 0.04%, 24 h after dosing",7.5 ± 1.1 mmHg
same,time IOP reductions were sustained after once daily dosing,[4]; monkeys,at least 24 h
same,half-life at 200 µM,[5],2.92 h
same,"induction of fibrogenic markers α-SMA, FSP1 and Collagen I by TGF-β2",primary HTM cells,abolished the induction of these markers by TGF-β2
same,Ki,[6],5310 nM
same,NET inhibitory activity,[7],possesses NET inhibitory activity
same,"AH half-life of related radioactivity, longer than that for AR-12286",[8],~60%
same,Tmax in AH,[8]; topical or ocular,8 h
same,"terminal elimination half-life (T1/2,e) in AH",[8]; topical or ocular,16 to 17 h
same,half-life at 200 µM,[9],2.6 h
same,half-life at 200 µM,[10],1.82 h
same,Ki,[11],92 nM
same,persistence of hyperemia after dosing,Dutch Belted rabbits,4 to 8 h
same,"hyperemia (scored 0 to 3, none to severe)",Dutch Belted rabbits; once daily for 3 days,trace (+0.5) to mild hyperemia (+1)
same,IC50,[12],16 nM
same,IC50,[13],79 nM
same,patients scored as having no hyperemia or trace hyperemia,patients,65% to 76
same,adverse effect noted (hyperemia),Formosan Rock monkeys,trace to mild hyperemia was the only adverse effect noted
same,half-life at 200 µM,[14],1.63 h
